{
  "source": "patent US6602676B1",
  "about": "“Testing method” (Milk Development Council, priority 1999, dated 2003)",
  "tested_on": "cows with luteal P4 insufficiency",
  "experiment": "Study II: pregnancy rate after P4 supplementation with CIDR on Day 5 post AI in cows with luteal P4 insufficiency",
  "type": "in vivo, Holstein-Friesian cows",
  "settings": "mean milk P4 on Day 5 post AI 1 to 1.99 ng/ml; CIDR inserted Day 5 post AI for seven days",
  "experimental": "Milk samples for P4 assay and reproductive data were collected from British Friesian and Holstein-Friesian cows in seven commercial herds. The cows were housed in a free-stall system and fed rations to meet their production and maintenance requirements. Data on calving date, parity, AI date and pregnancy were recorded. For the preliminary study, milk samples were collected daily for P4 determination from Day 7 postpartum until 100 days of the next gestation. The sampling protocol for animals in Studies I and II was limited to three milk samples per animal on Days 0, 5 and 24 post AI. […]\nMilk P4 concentrations in an un-extracted aliquot of whole milk were measured using either radio immunoassay (RIA) as described by Lamming and Bulman (Lamming, G. E. and D. C. Bulman (1976) Br. Vet. J. 132: 507-517) and Bulman and Lamming (Bulman D. C. and G. E. Lamming (1978) J. Reprod. Fertil. 54: 447-458) or enzyme linked immunosorbent assay (ELISA) kit (Ridgeway Science Ltd., Gloucestershire, UK) as illustrated by Darwash et al. (Darwash A. O et al (1999b) Anim Sci. (in press)). All samples and quality controls (QC) were assayed in duplicate and the mean value of both readings were used to indicate milk P4 concentrations. […]\nFollowing determination of pregnancy, the accuracy of using milk P4 concentrations on Day 24 post AI to predict pregnancy rates was calculated. […]",
  "data": [
    {"smiles": "CC(=O)[C@H]1CC[C@H]2[C@@H]3CCC4=CC(=O)CC[C@]4(C)[C@H]3CC[C@]12C", "note": "[P4, progesterone]", "values": [
      {"measurement": "Pregnancy (%), treated", "value": 57.9, "unit": "%"}
    ]}
  ]
}
